# Assays:
# [1] = test system: phosphorylation of myosin regulatory light chain; test: Inhibitory action on phosphorylation of myosin regulatory light chain (Test Example 1); format: cell-based; details: Neutrophil, 5 min; human peripheral blood neutrophils, 25° C. for 5 minutes; read-out: IC50, compound concentration providing a phosphorylation inhibition ratio of 50% (myosin regulatory light chain)
# Protocol: A volume of 50 to 100 ml of peripheral blood collected from healthy volunteers was centrifuged by using Mono-Poly separator solution (Dainippon Pharmaceutical) to prepare a neutrophil containing fraction. The neutrophils were washed with PBS(−) and resuspended in Hanks' Balanced Salt Solution (HBSS+, Gibco) to prepare a cell suspension (8×10^6/ml). The cell suspension was diluted to 5×10^6/ml, introduced into Eppendorf tubes in a volume of 0.4 ml each, then 0.1 ml each of solutions of a test compound at various concentrations were added to the suspension and allowed to react at 25° C. for 5 minutes. After the reaction, 0.1 ml of trichloroacetic acid solution was added to each reaction mixture, the reaction mixture was gently shaken and centrifuged at 12,000 rpm (4° C., 5 minutes), and the supernatant was removed. Subsequently, 3 μl of 1 M Tris solution was added to the residue, the mixture was further mixed with 50 μl of extraction buffer (8 M urea, 0.02% 2-mercaptoethanol, 0.002% bromophenol blue) and left stand at room temperature for 1 hour. Then, the reaction mixture was loaded on a spin column (0.45 μm, Millipore) to remove the insoluble solids and a sample buffer for SDS polyacrylamide gel electrophoresis (25 mM, Tris-HCl pH 6.8, 2.5% 2-mercaptoethanol, 2% sodium dodecylsulfate, 5% sucrose, 0.002% bromophenol blue as final concentrations) was added, and 10 μl of each sample was subjected to electrophoresis.
# The gel after the electrophoresis was blotted on a nitrocellulose membrane (BioRad), blocked with 5% skim milk, and reacted successively with antibodies pLC1 (Sakurada K. et al, Am. J. Physiol., 274, C1563-C1572 (1998)), which specifically recognize the phosphorylated myosin regulatory light chain, and donkey anti-mouse IgG (Chemicon) conjugated with horseradish peroxidase. The band of the phosphorylated myosin regulatory light chain was detected on a film by using ECL Plus Kit (Amersham Pharmacia Biotech). This band was subjected to quantification using a densitometer. By using this value, the inhibitory ratio (%) for phosphorylation of the myosin regulatory light chain was calculated by using the following equation. Phosphorylation inhibition ratio(%)=1−(Band intensity of phosphorylated myosin regulatory light chain with addition of the test compound/Band intensity of phosphorylated myosin regulatory light chain without addition of the test compound)×100
# Further, the phosphorylation inhibition ratio was calculated with changing the concentrations of the test compound, and a compound concentration providing an inhibition ratio of 50% was obtained as IC50.
# [2] = test system: rabbit normal intraocular pressure; test: Intraocular pressure reducing action (Test Example 2); format: in vivo, Japanese white rabbit; details: Oryctolagus cuniculus, topical; 3 mM aqueous solution, 50 μl to the left eye; measured after 2, 4 and 6 hours; read-out: intraocular pressure reducing degree (max ΔIOP / intraocular pressure value immediately before administration × 100)
# Protocol: A Japanese white rabbit having a body weight of about 2 kg was placed in a positioner and naturalized for one week before the experiment. An opthalmologic local anesthesant (Benoxil) was administered to both eyes, and then intraocular pressure was measured by using a tonometer (Classic 30, Solan). A 3 mM aqueous solution of a test compound was administered in a volume of 50 μl to the left eye, and the right eye was not treated (control eye). The intraocular pressure values were measured for the left and right eyes immediately before, and 2, 4 and 6 hours after the administration of the aqueous solution of the test compound, and the difference of the measured values for the left and right eyes was considered an intraocular pressure reduction value of the test medicament at each measurement time. The largest difference of the values for the left and right eyes among the measured values at the measurement times (after 2, 4 and 6 hours) was considered the maximum intraocular pressure reduction value (max ΔIOP) of each test medicament. The intraocular pressure reducing degree representing the intraocular pressure reducing action of each test medicament was calculated according to the following formula. Since rabbits show significant daily variation of intraocular pressure, daily variation is added when change of intraocular pressure is measured over time, and the intraocular pressure reducing action may be overestimated. Therefore, we used this calculation method of intraocular pressure reduction value in order to minimize the influence of the variation. Intraocular pressure reducing degree (%)=(max ΔIOP/Intraocular pressure value immediately before administration)×100
# neutrophils = test: Neutrophil migration inhibitory action, Boyden Chamber, FMLP (Test Example 3); format: cell-based; details: 0.5 h, human neutrophils, FMLP 1 μM, 37° C., 30 minutes, read-out: IC50, compound concentration providing a migration inhibition ratio of 50%
# Protocol: Neutrophils were isolated from 50 to 100 ml of peripheral blood collected from healthy human donors by the method described in Test Example 1 to obtain a cell suspension (8×10^6/ml). Subsequently, solutions of a test compound at various concentrations were introduced into wells of a 96-well plate in a volume of 125 μl per well, the cell suspension of an equivalent volume was added to it and the plate was preincubated at room temperature for 5 minutes. During the preincubation, FMLP (1 μM, Sigma) solution was added to the lower chamber to set Boyden Chamber, the preincubated cell suspension was added to the upper chamber in a volume of 200 μl per well, and the cells were allowed to migrate at 37° C. under 5% carbon dioxide for 30 minutes. The filter after the migration was collected, and the non-migrated cells adhered to the surface that faced the upper chamber were carefully wiped off. Then, the migrated cells on the back surface were stained with DifQuick dye solution (International Reagents), washed with water and dried, and then absorbance was measured at 595 nm. The inhibition ratio against migration (%) of a test compound was calculated by using the following equation: Migration inhibition ratio(%)=(1−Absorbance of the group with addition of test compound/Absorbance of the group without addition of test compound)×100
# Further, the migration inhibitory ratio was calculated with changing the test compound concentration, and a compound concentration providing an inhibition ratio of 50% was obtained as IC50.
Structure (SMILES),IC50 [1] [µM],inhibition in vivo at 3000 µM [2] [%],IC50 (neutrophils) [µM]
"N[C@H]1CCN(S(=O)(=O)c2cccc3cncc(Br)c23)C1 [Example 1-1, (S)-3-Amino-1-(4-bromo-5-isoquinolinesulfonyl)pyrrolidine]",< 10,≥ 20,10 to 40
"N[C@@H]1CCN(S(=O)(=O)c2cccc3cncc(Br)c23)C1 [Example 1-2, (R)-3-Amino-1-(4-bromo-5-isoquinolinesulfonyl)pyrrolidine]",< 10,≥ 20,10 to 40
"O=S(=O)(c1cccc2cncc(Br)c12)N1CC[C@H](NCc2ccco2)C1 [Example 4-1, (S)-3-(2-Furylmethyl)amino-1-(4-bromo-5-isoquinolinesulfonyl)pyrrolidine]",< 10,≥ 20,< 10
"N[C@H]1CCN(S(=O)(=O)c2cccc3c(O)ncc(Br)c23)C1 [Example 7-1, (S)-3-Amino-1-(1-hydroxy-4-bromo-5-isoquinolinesulfonyl)pyrrolidine]",< 10,≥ 20,< 10
"Cc1cncc2cccc(S(=O)(=O)N3CC[C@H](N)C3)c12 [Example 8-1, (S)-3-Amino-1-(4-methyl-5-isoquinolinesulfonyl)pyrrolidine]",< 10,≥ 20,< 10
"Cc1cncc2cccc(S(=O)(=O)N3CC[C@@H](N)C3)c12 [Example 8-2, (R)-3-Amino-1-(4-methyl-5-isoquinolinesulfonyl)pyrrolidine]",< 10,≥ 20,< 10
"C=Cc1cncc2cccc(S(=O)(=O)N3CC[C@H](N)C3)c12 [Example 9-1, (S)-3-Amino-1-(4-vinyl-5-isoquinolinesulfonyl)pyrrolidine]",< 10,≥ 20,10 to 40
"C#Cc1cncc2cccc(S(=O)(=O)N3CC[C@H](N)C3)c12 [Example 10-1, (S)-3-Amino-1-(4-ethynyl-5-isoquinolinesulfonyl)pyrrolidine]",< 10,≥ 20,10 to 40
"N[C@H]1CCN(S(=O)(=O)c2cccc3cncc(C4CC4)c23)C1 [Example 11-1, (S)-3-Amino-1-(4-cyclopropyl-5-isoquinolinesulfonyl)pyrrolidine]",< 10,5 to 10,10 to 40
"Nc1cncc2cccc(S(=O)(=O)N3CC[C@H](N)C3)c12 [Example 12-1, (S)-3-Amino-1-(4-amino-5-isoquinolinesulfonyl)pyrrolidine]",10 to 40,10 to 20,
"N#Cc1cncc2cccc(S(=O)(=O)N3CC[C@H](N)C3)c12 [Example 13-1, (S)-3-Amino-1-(4-cyano-5-isoquinolinesulfonyl)pyrrolidine]",,5 to 10,
"COc1cncc2cccc(S(=O)(=O)N3CC[C@H](N)C3)c12 [Example 15-1, (S)-3-Amino-1-(4-methoxy-5-isoquinolinesulfonyl)pyrrolidine]",10 to 40,5 to 10,
"N[C@H]1CCN(S(=O)(=O)c2cccc3cncc(F)c23)C1 [Example 18-1, (S)-3-Amino-1-(4-fluoro-5-isoquinolinesulfonyl)pyrrolidine]",10 to 40,≥ 20,
"N[C@@H]1CCN(S(=O)(=O)c2cccc3cncc(Cl)c23)C1 [Example 19-2, (R)-3-Amino-1-(4-chloro-5-isoquinolinesulfonyl)pyrrolidine]",< 10,≥ 20,10 to 40
"N[C@H]1CCCN(S(=O)(=O)c2cccc3cncc(Cl)c23)C1 [Example 21-1, (S)-3-Amino-1-(4-chloro-5-isoquinolinesulfonyl)piperidine]",10 to 40,≥ 20,
"N[C@@H]1CCCN(S(=O)(=O)c2cccc3cncc(Cl)c23)C1 [Example 21-2, (R)-3-Amino-1-(4-chloro-5-isoquinolinesulfonyl)piperidine]",10 to 40,10 to 20,
"Cc1cncc2cccc(S(=O)(=O)N3CCC[C@H](N)C3)c12 [Example 22-1, (S)-3-Amino-1-(4-methyl-5-isoquinolinesulfonyl)piperidine]",< 10,10 to 20,10 to 40
"N[C@H]1CCN(S(=O)(=O)c2cccc3cncc(-c4cnoc4)c23)C1 [Example 24-1, (S)-3-Amino-1-[4-(4-isoxazolyl)-5-isoquinolinesulfonyl]pyrrolidine]",,5 to 10,
"N[C@H]1CCN(S(=O)(=O)c2cccc3c(O)ncc(F)c23)C1 [Example 29-1, (S)-3-Amino-1-(1-hydroxy-4-fluoro-5-isoquinolinesulfonyl)pyrrolidine]",,10 to 20,
"N[C@H]1CCN(S(=O)(=O)c2cccc3c(O)ncc(Cl)c23)C1 [Example 30-1, (S)-3-Amino-1-(1-hydroxy-4-chloro-5-isoquinolinesulfonyl)pyrrolidine]",,≥ 20,
"CN[C@H]1CCN(S(=O)(=O)c2cccc3c(O)ncc(Br)c23)C1 [Example 35-1, (S)-1-(1-Hydroxy-4-bromo-5-isoquinolinesulfonyl)-3-(methylamino)pyrrolidine]",,5 to 10,
"CN[C@@H]1CCN(S(=O)(=O)c2cccc3c(O)ncc(Cl)c23)C1 [Example 36-2, (R)-1-(1-Hydroxy-4-chloro-5-isoquinolinesulfonyl)-3-(methylamino)pyrrolidine]",,10 to 20,
"O=S(=O)(c1cccc2c(O)ncc(Br)c12)N1CC[C@H](NCc2ccco2)C1 [Example 38-1, (S)-1-(1-Hydroxy-4-bromo-5-isoquinolinesulfonyl)-3-(2-furylmethylamino)pyrrolidine]",,5 to 10,
"Nc1ncc(Cl)c2c(S(=O)(=O)N3CC[C@H](N)C3)cccc12 [Example 39-1, (S)-3-Amino-1-(1-amino-4-chloro-5-isoquinolinesulfonyl)pyrrolidine]",,10 to 20,
"CN[C@H]1CCN(S(=O)(=O)c2cccc3c(N)ncc(Cl)c23)C1 [Example 40-1, (S)-1-(1-Amino-4-chloro-5-isoquinolinesulfonyl)-3-(methylamino)pyrrolidine]",,5 to 10,
"CN[C@H]1CCN(S(=O)(=O)c2cccc3c(N)ncc(Br)c23)C1 [Example 42-1, (S)-1-(1-Amino-4-bromo-5-isoquinolinesulfonyl)-3-(methylamino)pyrrolidine]",,5 to 10,

# — patent US7618984B2, “Sulfonamide compound” (Asahi Kasei Pharma Corporation, priority 2005, dated 2009)
